The assay has as its system L1210 leukemia ip in BDF1 mice, survival T/C. Briefly: NCI In Vivo Anticancer Drug Screen. Data for tumor model L1210 Leukemia (intraperitoneal) in B6D2F1 (BDF1) mice. The following applies: endpoint: mean survival time, higher = longer survival. Summed up: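 Tumor cells were implanted, animals were treated, and survival was followed. The result divides the treated measurement by the vehicle-control measurement.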

The mark [1] stands for this setting: dose: 100.0 mg/kg/injection, schedule: Q04DX003 (ip), vehicle: saline with Tween-80.
Setting [2] is: dose: 100.0 mg/kg/injection, schedule: Q01DX009 (ip), vehicle: saline.
Where [3] appears, read: dose: 200.0 mg/kg/injection, schedule: Q01DX009 (ip), vehicle: saline.
Setting [4] is: dose: 400.0 mg/kg/injection, schedule: Q01DX009 (ip), vehicle: saline.
Setting [5] is: dose: 200.0 mg/kg/injection, schedule: Q04DX003 (ip), vehicle: saline with Tween-80.
The mark [6] stands for this setting: dose: 100.0 mg/kg/injection, schedule: Q01DX009 (ip), vehicle: saline with Tween-80.
The mark [7] stands for this setting: dose: 200.0 mg/kg/injection, schedule: Q01DX009 (ip), vehicle: saline with Tween-80.
Setting [8] is: dose: 100.0 mg/kg/injection, schedule: Q01DX001 (ip), vehicle: saline with Tween-80.
Where [9] appears, read: dose: 100.0 mg/kg/injection, schedule: Q04DX002 (ip), vehicle: Klucel (hydroxypropylcellulose) (HPC).
[10] abbreviates: dose: 200.0 mg/kg/injection, schedule: Q04DX002 (ip), vehicle: Klucel (hydroxypropylcellulose) (HPC).
Setting [11] is: dose: 400.0 mg/kg/injection, schedule: Q04DX002 (ip), vehicle: Klucel (hydroxypropylcellulose) (HPC).

Where “and” joins values, the source holds several entries; their conditions need not be identical. Equal entries are not always repeated. Inconclusive results and toxic doses are left out.

For `O=C(/C=C/c1cccc2ccccc12)c1cccc([N+](=O)[O-])c1`, the T/C by setting is: (dose: 100.0 mg/kg/injection, schedule: Q04DX002 (ip), vehicle: gum acacia) 88 % of control; (dose: 200.0 mg/kg/injection, schedule: Q04DX002 (ip), vehicle: gum acacia) 92 % of control; (dose: 400.0 mg/kg/injection, schedule: Q04DX002 (ip), vehicle: gum acacia) 96 % of control.
With `CCOC(=O)N(CC(C)C(=O)OC)C(C)C` (configuration not stated), the T/C was 100 % of control (dose: 100.0 mg/kg/injection, schedule: Q01DX Z (ip), vehicle: saline) and 97 % of control (dose: 200.0 mg/kg/injection, schedule: Q01DX Z (ip), vehicle: saline).
In the case of `CC1(C)CC(N=Cc2ccccc2O)CC(C)(C)N1O.CC1(C)CC(N=Cc2ccccc2O)CC(C)(C)N1O.[Ni]`, under setting [1], the T/C was 100 % of control.
For the molecule `CC1(C)Cc2cc3cc(Cl)ccc3nc2-c2ccccc21`, the T/C under setting [2] was 102 % of control; the T/C (dose: 100.0 mg/kg/injection, schedule: Q04DX003 (ip), vehicle: acetone) is 98 % of control; the T/C under setting [3] is 89 % of control; the T/C (dose: 200.0 mg/kg/injection, schedule: Q04DX003 (ip), vehicle: acetone) is 104 % of control; the T/C under setting [4] was 100 % of control; the T/C (dose: 400.0 mg/kg/injection, schedule: Q04DX003 (ip), vehicle: acetone) was 94 % of control.
On to `CC(C)(C1c2ccccc2NC(=O)c2ccccc21)[N+](=O)[O-]` (configuration not stated), for which the T/C is 101 % of control under setting [1] and 94 % of control under setting [5].
With `CC(=O)Nc1ccc(NC(=O)Nc2ccc(C)cc2)cc1`, the T/C is, setting by setting: (dose: 50.0 mg/kg/injection, schedule: Q01DX009 (ip), vehicle: saline with Tween-80) 90 % of control; under setting [6], 90 % of control; under setting [7], 90 % of control.
Consider `O=c1ccsc2ccccc12`, for which the T/C is 103 % of control (dose: 25.0 mg/kg/injection, schedule: Q01DX001 (ip), vehicle: saline with Tween-80); 97 % of control (dose: 50.0 mg/kg/injection, schedule: Q01DX001 (ip), vehicle: saline with Tween-80); 105 % of control and 92 % of control under setting [8].
For the molecule `CN(C)N=Nc1n[nH]nc1C(N)=O`, the T/C is 102 % of control (dose: 50.0 mg/kg/injection, schedule: Q01DX001 (ip), vehicle: saline); 112 % of control (dose: 66.0 mg/kg/injection, schedule: Q01DX Z (ip), vehicle: carboxymethylcellulose (CMC)); 109 % of control and 118 % of control (dose: 100.0 mg/kg/injection, schedule: Q01DX001 (ip), vehicle: saline); 113 % of control under setting [2]; 106 % of control (dose: 100.0 mg/kg/injection, schedule: Q01DX Z (ip), vehicle: carboxymethylcellulose (CMC)); 98 % of control (dose: 100.0 mg/kg/injection, schedule: Q04DX003 (ip), vehicle: saline). Moreover, the T/C reads like this: (dose: 134.0 mg/kg/injection, schedule: Q01DX009 (ip), vehicle: saline) 117 % of control; (dose: 168.0 mg/kg/injection, schedule: Q01DX Z (ip), vehicle: carboxymethylcellulose (CMC)) 116 % of control; (dose: 200.0 mg/kg/injection, schedule: Q01DX001 (ip), vehicle: saline) 107 % of control and 118 % of control; (dose: 200.0 mg/kg/injection, schedule: Q04DX003 (ip), vehicle: saline) 120 % of control; (dose: 287.0 mg/kg/injection, schedule: Q04DX003 (ip), vehicle: saline) 102 % of control; (dose: 287.5 mg/kg/injection, schedule: Q01DX001 (ip), vehicle: saline) 103 % of control. Besides, the T/C runs as follows: (dose: 400.0 mg/kg/injection, schedule: Q01DX001 (ip), vehicle: saline) 115 % of control; under setting [4], 154 % of control; (dose: 400.0 mg/kg/injection, schedule: Q04DX003 (ip), vehicle: saline) 124 % of control; (dose: 575.0 mg/kg/injection, schedule: Q01DX001 (ip), vehicle: saline) 109 % of control; (dose: 575.0 mg/kg/injection, schedule: Q04DX003 (ip), vehicle: saline) 110 % of control; (dose: 1150.0 mg/kg/injection, schedule: Q01DX001 (ip), vehicle: saline) 117 % of control. For the same molecule, the T/C (dose: 1150.0 mg/kg/injection, schedule: Q04DX003 (ip), vehicle: saline) was 112 % of control.
As to `O=C(CCC(=O)OCCBr)OCCBr`, the T/C is, setting by setting: (dose: 100.0 mg/kg/injection, schedule: Q04DX003 (ip), vehicle: Klucel (hydroxypropylcellulose) (HPC)) 110 % of control; (dose: 200.0 mg/kg/injection, schedule: Q04DX003 (ip), vehicle: Klucel (hydroxypropylcellulose) (HPC)) 102 % of control.
For the molecule `CC(C)N=Cc1ccccc1O.CC(C)N=Cc1ccccc1O.[Cu]`, the T/C (dose: 75.0 mg/kg/injection, schedule: Q01DX001 (ip), vehicle: other) is 113 % of control.
As for `Cc1ccc(N2C(=O)CCC2=O)c(C)c1`, the T/C is 104 % of control (dose: 50.0 mg/kg/injection, schedule: Q01DX001 (ip), vehicle: carboxymethylcellulose (CMC)); 98 % of control (dose: 100.0 mg/kg/injection, schedule: Q01DX001 (ip), vehicle: carboxymethylcellulose (CMC)); 102 % of control (dose: 200.0 mg/kg/injection, schedule: Q01DX001 (ip), vehicle: carboxymethylcellulose (CMC)); 98 % of control (dose: 400.0 mg/kg/injection, schedule: Q01DX001 (ip), vehicle: carboxymethylcellulose (CMC)).
`C[Si](C)(C)OC/C=C\CO[Si](C)(C)C`: the T/C reads like this: under setting [2], 96 % of control; (dose: 100.0 mg/kg/injection, schedule: Q04DX003 (ip), vehicle: alcohol) 103 % of control; under setting [3], 94 % of control; (dose: 200.0 mg/kg/injection, schedule: Q04DX003 (ip), vehicle: alcohol) 101 % of control; (dose: 400.0 mg/kg/injection, schedule: Q04DX003 (ip), vehicle: alcohol) 96 % of control.
In the case of `CN(C)C(C(=O)O)c1ccccc1` (configuration not stated), the T/C by setting is: (dose: 100.0 mg/kg/injection, schedule: Q04DX002 (ip), vehicle: saline with Tween-80) 101 % of control; (dose: 200.0 mg/kg/injection, schedule: Q04DX002 (ip), vehicle: saline with Tween-80) 97 % of control; (dose: 400.0 mg/kg/injection, schedule: Q04DX002 (ip), vehicle: saline with Tween-80) 97 % of control.
Regarding `CCO/C(C)=N/OC(=O)c1cc(Cl)ccc1Cl`, the T/C was 98 % of control under setting [9], 110 % of control under setting [10] and 113 % of control under setting [11].
For `c1ccc([Si](c2ccccc2)(c2ccccc2)c2ccc([Si](c3ccccc3)(c3ccccc3)c3ccccc3)cc2)cc1`, the T/C by setting is: under setting [6], 95 % of control; under setting [1], 103 % of control; under setting [7], 92 % of control; under setting [5], 90 % of control; (dose: 400.0 mg/kg/injection, schedule: Q01DX009 (ip), vehicle: saline with Tween-80) 90 % of control; (dose: 400.0 mg/kg/injection, schedule: Q04DX003 (ip), vehicle: saline with Tween-80) 106 % of control.
Regarding `C=CCc1ccc(OC(=O)Nc2ccccc2)c(OC)c1`, the T/C runs as follows: under setting [9], 87 % of control; under setting [10], 87 % of control; under setting [11], 87 % of control.
As to `CCC(Cl)COP(=O)(OCC(Cl)CC)C(OP(=S)(OCC(Cl)CC)OCC(Cl)CC)C(C)C` (configuration not stated), the T/C reads like this: (dose: 50.0 mg/kg/injection, schedule: Q04DX002 (sc), vehicle: olive oil, sesame oil, peanut oil) 104 % of control; (dose: 100.0 mg/kg/injection, schedule: Q04DX002 (sc), vehicle: olive oil, sesame oil, peanut oil) 118 % of control; (dose: 200.0 mg/kg/injection, schedule: Q04DX002 (sc), vehicle: olive oil, sesame oil, peanut oil) 110 % of control.
`N#Cc1cn[nH]c1N`: the T/C was 98 % of control under setting [8]; 95 % of control (dose: 200.0 mg/kg/injection, schedule: Q01DX001 (ip), vehicle: saline with Tween-80); 103 % of control (dose: 400.0 mg/kg/injection, schedule: Q01DX001 (ip), vehicle: saline with Tween-80).

(Values after PubChem BioAssay AID248 (DTP/NCI, 2004).)
